Experimental data reported in patent US11541050B2, “Pyrimidine derivatives for the treatment of viral infections” (JANSSEN SCIENCES IRELAND UC, priority 2011, dated 2023).

Columns and labels:
Type in all cases: cell-based
Set-up in all cases: unit not given here
[1] = test system: human TLR8 mutant sequence comprising a deletion in the second leucine-rich repeat; assay: TLR8 cellular NFκB-luc reporter assay, mutant TLR8 with deletion in the second leucine-rich repeat; conditions: lowest effective concentration
Procedure: (§1) The ability of compounds to activate human TLR7 and/or TLR8 was assessed in a cellular reporter assay using HEK293 cells transiently transfected with a TLR7 or TLR8 expression vector and NFκB-luc reporter construct. In one instance the TLR expression construct expresses the respective wild type sequence or a mutant sequence comprising a deletion in the second leucine-rich repeat of the TLR.
(§2) Briefly, HEK293 cells were grown in culture medium (DMEM supplemented with 10% FCS and 2 mM Glutamine). For transfection of cells in 10 cm dishes, cells were detached with Trypsin-EDTA, transfected with a mix of CMV-TLR7 or TLR8 plasmid (750 ng), NFκB-luc plasmid (375 ng) and a transfection reagent and incubated for 48 hours at 37° C. in a humidified 5% CO2 atmosphere. […] Thirty microliters of cells were then dispensed into each well in 384-well plates, where 10 μL of compound in 4% DMSO was already present. Following 6 hours incubation at 37° C., 5% CO2, the luciferase activity was determined by adding 15 μl of Steady Lite Plus substrate (Perkin Elmer) to each well and readout performed on a ViewLux ultraHTS microplate imager (Perkin Elmer). Dose response curves were generated from measurements performed in quadruplicates.

[2] = test system: human TLR7 mutant sequence comprising a deletion in the second leucine-rich repeat; assay: TLR7 cellular NFκB-luc reporter assay, mutant TLR7 with deletion in the second leucine-rich repeat; conditions: lowest effective concentration
Procedure: as §1, §2

[3] = target: T1, human TLR7 (wild type sequence) (Homo sapiens, UniProt Q9NYK1); assay: TLR7 cellular NFκB-luc reporter assay, wild type TLR7; conditions: lowest effective concentration, wild type TLR7
T1 construct: expressed in transfected cells; host or cells: HEK293
T1 sequence (Q9NYK1 27-1049): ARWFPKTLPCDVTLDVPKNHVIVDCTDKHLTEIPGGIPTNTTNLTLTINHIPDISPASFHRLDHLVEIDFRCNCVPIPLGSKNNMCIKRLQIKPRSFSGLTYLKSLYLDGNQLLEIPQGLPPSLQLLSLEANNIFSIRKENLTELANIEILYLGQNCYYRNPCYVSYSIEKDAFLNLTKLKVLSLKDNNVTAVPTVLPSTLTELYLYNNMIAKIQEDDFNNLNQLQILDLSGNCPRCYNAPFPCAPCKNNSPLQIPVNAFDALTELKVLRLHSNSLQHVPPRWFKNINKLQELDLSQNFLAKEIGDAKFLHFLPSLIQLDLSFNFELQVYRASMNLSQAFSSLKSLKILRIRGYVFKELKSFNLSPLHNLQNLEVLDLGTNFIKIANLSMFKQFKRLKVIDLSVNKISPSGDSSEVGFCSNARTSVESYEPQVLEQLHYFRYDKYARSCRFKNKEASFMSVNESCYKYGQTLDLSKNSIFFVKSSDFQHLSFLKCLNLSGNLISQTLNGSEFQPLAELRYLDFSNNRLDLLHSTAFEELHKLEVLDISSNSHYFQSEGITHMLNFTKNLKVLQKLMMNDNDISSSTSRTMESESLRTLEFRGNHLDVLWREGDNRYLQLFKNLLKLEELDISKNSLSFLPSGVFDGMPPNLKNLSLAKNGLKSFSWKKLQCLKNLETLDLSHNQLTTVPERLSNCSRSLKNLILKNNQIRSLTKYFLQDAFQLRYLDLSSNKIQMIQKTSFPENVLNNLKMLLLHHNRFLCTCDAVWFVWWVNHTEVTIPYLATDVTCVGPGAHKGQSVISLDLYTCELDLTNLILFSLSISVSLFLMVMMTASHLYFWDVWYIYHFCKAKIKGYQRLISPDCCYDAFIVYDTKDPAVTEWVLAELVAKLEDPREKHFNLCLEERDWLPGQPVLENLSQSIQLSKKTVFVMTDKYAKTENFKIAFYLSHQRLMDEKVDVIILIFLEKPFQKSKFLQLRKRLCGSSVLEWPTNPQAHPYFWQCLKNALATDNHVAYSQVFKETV
How it was run: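 First, HEK293 cells were co-transfected with TLR7 or TLR8 (native or LRR2-deletion) and NFκB-luc and cultured 48 h. Next, cells were incubated with compound for 6 h at 37 °C. Finally, luciferase was read; LEC came from dose-response curves run in quadruplicate.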

SMILES	TLR8-dIRR2_LEC [1]	TLR7-dIRR2_LEC [2]	TLR7-wt_LEC [3]
CCCC[C@@H](CCO)Nc1nc(N)ncc1OCCCc1ccc2c(c1)OCO2 [Compound 244]	0.104	1.400	0.202
CCC[C@@H](CCO)Nc1nc(N)ncc1OCc1nccc2ccccc12 [Compound 231]	<0.001	0.052	0.001
CCCC[C@@H](CCO)Nc1nc(N)ncc1OCc1cccnc1 [Compound 272]	0.084	1.110	0.207
CCCC[C@@H](C[C@@H](C)O)Nc1nc(N)ncc1OC [Compound 300]	0.475	0.720	1.740
CCC[C@@H](C)Nc1nc(N)ncc1OCc1nccc(OC)c1OC [Compound 252]	1.310	>25	4.020
CCCCNc1nc(N)ncc1OCC(C)O (stereo not drawn) [Compound 290]	12.460	9.110	>25
CCCCNc1nc(N)ncc1OCCOCC(C)C [Compound 289]	0.647	0.930	0.875
CCCCNc1nc(N)ncc1O[C@@H](C)c1ccccn1 [Compound 262]	0.363	0.168	0.658
CCCCNc1nc(N)ncc1OCc1ccc(CO)cc1 [Compound 281]	0.191	1.630	0.472
CCC[C@@H](CCO)Nc1nc(N)ncc1OCc1cc2ccccc2cn1 [Compound 249]	0.036	0.172	0.039
CCC[C@@H](CO)Nc1nc(N)ncc1OCc1nccc(OC)c1OC [Compound 214]	0.027	0.593	0.134
CCC[C@@H](CO)Nc1nc(N)ncc1OCc1cccc(C(N)=O)n1 [Compound 256]	0.039	0.100	1.630
CCCCNc1nc(N)ncc1OCC(CC)OC (stereo not drawn) [Compound 288]	14.890	10.200	>25
CCCC[C@@H](CO)Nc1nc(N)ncc1OCc1cccnc1 [Compound 274]	0.357	0.303	1.140
CCCCNc1nc(N)ncc1OCCOCC(F)(F)F [Compound 276]	0.652	0.707	3.260
CCC[C@@H](CCO)Nc1nc(N)ncc1OCc1ccccn1 [Compound 293]	0.088	0.530	0.197
CCC[C@@H](CCO)Nc1nc(N)nc(C)c1OCc1nccc2ccccc12 [Compound 286]	0.128	7.660	0.620
CCCC[C@@H](CCO)Nc1nc(N)ncc1OCc1nn(C)c2ccccc12 [Compound 240]	0.005	0.442	0.008
CCCC[C@@H](CO)Nc1nc(N)ncc1OCCCc1ccc2c(c1)OCO2 [Compound 228]	0.112	1.510	1.410
CCC[C@@H](CO)Nc1nc(N)ncc1OCc1cccnn1 [Compound 277]	0.135	0.438	1.180
CCC[C@H](C)Nc1nc(N)ncc1OCc1cn2ccccc2n1 [Compound 251]	0.087	0.556	0.164
